Results as given in patent US20190092761A1, “Methods and Compositions for Inhibition of Bromodomain and Extratermial Proteins” (Convergene LLC, priority 2014, published 2019).

Target: T1, BRD4 bromodomains (Homo sapiens, UniProt O60885)
T1 construct: fused on or other part: T7 phage capsid protein (fusion for phage display)
Assay: BROMOscan bromodomain binding assay
Settings: Kd classes; BRD4 bromodomains displayed on T7 phage, competition with acetylated peptide ligand, 11 concentrations 0 to 10 μM; read-out: BROMOscan Relative Activity
Description: Bromodomain assays were conducted to measure interactions between certain compounds and bromodomains. In order to measure compounds' direct activity against BRD4, dissociation constants ([…]) of the bromodomain inhibitors of the present invention were obtained using a biophysical binding assay, BROMOscan℠ (DiscoveRx, San Diego, Calif.), a modified phage-display system originally developed for kinases (Nat Biotechnol. 2005 March; 23(3):329-36).
The assays were conducted according to BROMOscan protocol from Discover Rx. Briefly, BRD4 bromodomains expressed as a fusion capsid protein of T7 phage were bound to acetylated peptide ligand on a solid phase and competition bindings were performed. T7 phage strains displaying bromodomains were grown in parallel in 24-well blocks in an E. coli host derived from the BL21 strain. E. coli were grown to log-phase and infected with T7 phage from a frozen stock (multiplicity of infection=0.4) and incubated with shaking at 32° C. until lysis (90-150 minutes). The lysates were centrifuged (5,000×g) and filtered (0.2 μm) to remove cell debris. Streptavidin-coated magnetic beads were treated with biotinylated small molecule or acetylated peptide ligands for 30 minutes at room temperature to generate affinity resins for bromodomain assays. The liganded beads were blocked with excess biotin and washed with blocking buffer (SeaBlock (Pierce), 1% BSA, 0.05% Tween 20, 1 mM DTT) to remove unbound ligand and to reduce non-specific phage binding. Binding reactions were assembled by combining bromodomains, liganded affinity beads, and test compounds in 1× binding buffer (17% SeaBlock, 0.33×PBS, 0.04% Tween 20, 0.02% BSA, 0.004% Sodium azide, 7.4 mM DTT). Test compounds were prepared as 1000× stocks in 100% DMSO and subsequently diluted 1:10 in monoethylene glycol (MEG) to create stocks at 100× the screening concentration (resulting stock solution is 10% DMSO/90% MEG). The compounds were then diluted directly into the assays such that the final concentration of DMSO and MEG were 0.1% and 0.9%, respectively. All reactions were performed in polystyrene 96-well plates in a final volume of 0.135 ml. The assay plates were incubated at room temperature with shaking for 1 hour and the affinity beads were washed with wash buffer (1×PBS, 0.05% Tween 20). The beads were then re-suspended in elution buffer (1×PBS, 0.05% Tween 20, 2 μM non-biotinylated affinity ligand) and incubated at room temperature with shaking for 30 minutes. The bromodomain concentration in the eluates was measured by qPCR. Data was collected at 11 compound concentrations ranging from 0 to 10 μM. Kd values were then derived from a standard dose-response curve generated with Hill equation (Hill Slope was set to −1) and a non-linear least square fit with the Levenberg-Marquardt algorithm.
Response=Background+Signal−Background/1+(Kd Hill Slope/Dose Hill Slope)
Data is reported in Table 3 as Relative Activity, wherein a Kd of less than 100 nM is denoted by (+++), a Kd of between 100 nM and 1 μM is denoted by (++), and a Kd of 1 μM to greater than 10 μM is denoted by (+).

Row | Kd | SMILES
1 | < 100 nM | Cc1noc(C)c1-c1ccc2[nH]c(=O)cc(NN3CCc4ccccc4C3)c2c1 [Example 1]
2 | < 100 nM | Cc1noc(C)c1-c1ccc2[nH]c(=O)cc(NN(C)c3ccccc3)c2c1 [Example 5, 6-(3,5-dimethylisoxazol-4-yl)-4-(2-methyl-2-phenylhydrazinyl)-quinolin-2(1H)-one]
3 | < 100 nM | Cc1noc(C)c1-c1ccc2[nH]c(=O)cc(NN(CC(=O)O)c3ccccc3)c2c1 [Example 6]
4 | < 100 nM | CC(=O)N(Nc1cc(=O)[nH]c2ccc(-c3c(C)noc3C)cc12)c1ccccc1 [Example 7]
5 | < 100 nM | Cc1noc(C)c1-c1cc2[nH]c(=O)c(C)c(NNc3ccccc3Cl)c2cc1-c1c(C)noc1C [Example 60]
6 | < 100 nM | Cc1noc(C)c1-c1ccc2[nH]c(=O)cc(NCc3cccc(Cl)c3)c2c1 [Example 108]
7 | < 100 nM | Cc1noc(C)c1-c1ccc2[nH]c(=O)cc(NCc3cccc(Br)c3)c2c1 [Example 112]
8 | < 100 nM | COc1cccc(CNc2cc(=O)[nH]c3ccc(-c4c(C)noc4C)cc23)c1 [Example 116]
9 | 100 to 1000 nM | Cc1noc(C)c1-c1ccc2[nH]c(=O)cc(NCc3cccc(C(F)(F)F)c3)c2c1 [Example 120]
10 | 100 to 1000 nM | Cc1noc(C)c1-c1ccc2[nH]c(=O)cc(NCc3cc(Cl)cc(Cl)c3)c2c1 [Example 124]
11 | 100 to 1000 nM | Cc1noc(C)c1-c1ccc2[nH]c(=O)cc(NCc3ccc(Cl)cc3Cl)c2c1 [Example 128]
12 | 100 to 1000 nM | Cc1noc(C)c1-c1ccc2[nH]c(=O)cc(NCc3ccc(Cl)cc3)c2c1 [Example 132]
13 | 100 to 1000 nM | Cc1noc(C)c1-c1ccc2[nH]c(=O)cc(NCc3ccc(-c4ccccc4)cc3)c2c1 [Example 140]
14 | 100 to 1000 nM | Cc1noc(C)c1-c1ccc2[nH]c(=O)cc(NCC3CCCCC3)c2c1 [Example 144]
15 | < 100 nM | Cc1noc(C)c1-c1cc2c(NCc3ccccc3)cc(=O)[nH]c2cc1C(=O)N(C)C [Example 160, 4-(benzylamino)-6-(3,5-dimethylisoxazol-4-yl)-N,N-dimethyl-2-oxo-1,2-dihydroquinoline-7-carboxamide]
16 | < 100 nM | Cc1noc(C)c1-c1cc2c(NCc3ccccc3)cc(=O)[nH]c2cc1C(N)=O [Example 161, 4-(benzylamino)-6-(3,5-dimethylisoxazol-4-yl)-2-oxo-1,2-dihydroquinoline-7-carboxamide]
17 | < 100 nM | Cc1noc(C)c1-c1cc2[nH]c(=O)cc(NCc3ccccc3)c2cc1-c1c(C)noc1C [Example 162, 4-(benzylamino)-6,7-bis(3,5-dimethylisoxazol-4-yl)quinolin-2(1H)-one]
18 | < 100 nM | O=c1cc(NCc2cccc(Cl)c2)c2cc(-c3cccnc3)ccc2[nH]1 [Example 163, 4-(3-chlorobenzylamino)-6-(pyridin-3-yl)quinolin-2(1H)-one]
19 | < 100 nM | COc1cncc(-c2ccc3[nH]c(=O)cc(NCc4cccc(Cl)c4)c3c2)c1 [Example 164, 4-(3-chlorobenzylamino)-6-(5-methoxypyridin-3-yl)quinolin-2(1H)-one]
20 | > 1000 nM | COc1ncccc1-c1ccc2[nH]c(=O)cc(NCc3cccc(Cl)c3)c2c1 [Example 165, 4-(3-chlorobenzylamino)-6-(2-methoxypyridin-3-yl)quinolin-2(1H)-one]
21 | < 100 nM | O=c1cc(NCc2cccc(Cl)c2)c2cc(-c3ccncc3)ccc2[nH]1 [Example 166]
22 | < 100 nM | Cn1cc(-c2ccc3[nH]c(=O)cc(NCc4cccc(Cl)c4)c3c2)cn1 [Example 167, 4-(3-chlorobenzylamino)-6-(1-methyl-1H-pyrazol-4-yl)quinolin-2(1H)-one]
23 | < 100 nM | Cc1noc(C)c1-c1ccc2[nH]c(=O)cc(NCc3ccccc3)c2c1 [Example 170, 4-(benzylamino)-6-(3,5-dimethylisoxazol-4-yl)quinolin-2(1H)-one]
24 | < 100 nM | COc1ccccc1CNc1cc(=O)[nH]c2ccc(-c3c(C)noc3C)cc12 [Example 171]
25 | < 100 nM | Cc1noc(C)c1-c1ccc2[nH]c(=O)cc(NCc3ccccc3F)c2c1 [Example 172]
26 | < 100 nM | Cc1noc(C)c1-c1ccc2[nH]c(=O)cc(N[C@H](C)c3ccccc3)c2c1 [Example 173]
27 | 100 to 1000 nM | Cc1noc(C)c1-c1ccc2[nH]c(=O)cc(NCc3cccnc3)c2c1 [Example 175]
